According to PMC5361054, “Exploring the Association of Surface Plasmon Resonance with Recombinant MHC:Ig Hybrid Protein as a Tool for Detecting T Lymphocytes in Mice Infected with Leishmania (Leishmania) amazonensis” (BioMed Research International, 2017):

Tests used:
[1] = tested on: lymph node cells (T lymphocytes) from L. (L.) amazonensis-infected BALB/c mice; test: SPR interaction of lymph node cells with immobilized DimerX/peptide complexes; assay type: cell-based; conditions: for RUs (subtractive dissociation response) 3rd week: 3rd week of infection; for RUs (subtractive dissociation response) 4th week: 4th week of infection; for RUs (subtractive dissociation response) 6th week: 6th week of infection; for RUs (subtractive dissociation response) 12th week: 12th week of infection; for RUs (subtractive dissociation response) 18th week: 18th week of infection; for trend of reactivity of peptide-reactive T lymphocytes along the infection: weeks 1 to 18 of infection, result in words
Method: BALB/c 5–7-week-old female mice (H-2 haplotype^d) were obtained from the animal care facility of Fiocruz (Centro de Criação de Animais de Laboratório (CECAL), Fiocruz). For the experimental infections, each animal was inoculated subcutaneously with 1.0 × 10^5 stationary-phase promastigotes in PBS (50 μL) in the left hind paw. For in vitro and ex vivo assays, cells were isolated from the lesion-draining popliteal lymph nodes of five mice infected with L. (L.) amazonensis. After isolating and counting the viable cells, these were adjusted and resuspended in RPMI medium supplemented with 2% FCS (5.0 × 10^5 cells/mL). All procedures using animals were previously approved by the Animal Ethics Committee of Fiocruz (Comissão de Ética no Uso de Animais (CEUA), Fiocruz; L-0006/07).
Interaction of the Cells with the Complex DimerX/Peptide (Step 4). The reflectance values were expressed as resonance units per second (RU/s). In these assays, the kinetics of association and dissociation between immobilized DimerX/peptide complexes and lymph node cells were determined. These assays were performed with 10^4 cells suspended in PBS in a final volume of 100 μL (Fr = 5 μL/min).
Regeneration of the Sensor Chips (Step 5). The regeneration was performed by the injection of 250 μL of 30 mM HCl (Fr = 50 μL/min) into the system, followed by the injection of 200 μL PBS (Fr = 50 μL/min). After this procedure, only the DimerX molecules were left on the sensor chip surface; thus they were able to form new complexes with different peptides and interact again with cells.
Lymph node cells were injected onto SPR chips covered by immobilized DimerX/peptides complexes (Figure 4). In these experiments, due to the complexity to define the kinetic parameters for whole cells, the RU values for association (RUa) and dissociation (RUd) were used as standards to assess interaction of cells with the complexes. Also, as the stability of RUd signal over time relates to the stability of interaction, it was used as parameter to define the binding of reactive cells.
Furthermore, experimental evidences support the hypothesis that the binding of the cells from infected mice to the immobilized complexes is specific, once the RUd values obtained for these interactions were consistently higher that those observed for the interaction of cells from noninfected mice. The RU values obtained by the subtraction of the nonspecific interaction RU (cells from noninfected animals) from the specific interaction RU (cells from infected mice) were considered as representative of the binding effectiveness (Table 2). These effectiveness RU values allowed observing a different trend of T lymphocytes recognition for each peptide tested throughout the experimental infection timeline (Table 2).

[2] = target: H-2 L^d:Ig (DimerX) protein; test: SPR kinetics of synthetic peptide binding to immobilized DimerX; parameters: species or system Mouse; conditions: for Kd: KD = kd/ka from SPR at 25°C, read-out: affinity constant (KD); for association constant (ka) / dissociation constant (kd): SPR, DimerX immobilized on carboxylated sensor chip by EDC/NHS, peptide in PBS, neutral pH, 25°C
Chain of H-2 L^d:Ig (DimerX) protein (P01897 25-298 limits assumed): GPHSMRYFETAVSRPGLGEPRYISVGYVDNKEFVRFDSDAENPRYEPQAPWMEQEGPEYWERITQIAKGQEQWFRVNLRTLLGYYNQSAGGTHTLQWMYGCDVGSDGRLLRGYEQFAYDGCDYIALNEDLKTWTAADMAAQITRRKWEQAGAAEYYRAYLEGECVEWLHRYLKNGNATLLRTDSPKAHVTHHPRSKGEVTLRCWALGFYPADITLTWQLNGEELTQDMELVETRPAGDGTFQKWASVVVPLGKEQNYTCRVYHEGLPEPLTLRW
Chain of H-2 L^d:Ig (DimerX) protein (P01887 21-119, further chain): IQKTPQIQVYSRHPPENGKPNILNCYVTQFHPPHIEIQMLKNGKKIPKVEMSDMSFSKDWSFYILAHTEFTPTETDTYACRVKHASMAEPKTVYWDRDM
Method: Surface Functionalization of Sensor Chip (Steps 1 and 2). The functionalization process was performed in eight steps using running buffer (10 mM HEPES, 3 mM EDTA, 150 mM NaCl, and 0.005% Tween 20, pH 7.4) at a continuous flow rate (Fr): (i) injection of 10 μL of 50 mM HCl (Fr = 10 μL/min); (ii) injection of 100 μL 10 mM CH3COOH (Fr = 50 μL/min); (iii) injection of 150 μL of coupling agents (1 : 1) 400 mM EDC : NHS (Fr = 15 μL/min); (iv) injection of 100 μL 10 mM CH3COOH (Fr = 50 μL/min); (v) injection of 100 μL (0.5 μg) of DimerX H-2 L^d:Ig (Fr = 10 μL/min); (vi) injection of 100 μL 10 mM CH3COOH (Fr = 50 μL/min); (vii) injection of 150 μL 100 mM ethanolamine (Fr = 20 μL/min); and (viii) injection of 200 μL 50 mM HCl (Fr = 50 μL/min).
Complex Formation of H-2 L ^d :Ig/Peptide (Step 3). Binding of peptides to protein DimerX was performed through the injection of 100 μL of each synthetic peptide over the functionalized sensor chip (Fr = 10 μL/min). The peptides (2 mg/mL) were diluted in filtrated PBS, which was also used as the running buffer. The concentration of peptides for binding to the DimerX was determined according to the manufacturer's instructions:(1) Mp=MH·R·Dp/DH, where Mp is micrograms of the peptide, MH is micrograms of H-2 in the reaction, R is molar excess (160 mol) between the peptide and protein H-2, Dp is molecular weight of the peptide, and DH is molecular weight of DimerX (250,000 Da).
Affinity Constants and Gibbs Free Energy. […] The following calculation was used to obtain the KD for interactions that rapidly reach equilibrium:(2) KD=kd/ka. The formation of molecular complex between DimerX and peptides complex was also analyzed to calculate the Gibbs free energy of dissociation. This energy is related to the equilibrium constant (Keq) of the transition state between the product (DimerX/peptide) and its transient state. The values of Keq were calculated using the ka and kd data obtained from the SPR assay at 25°C:(3) ΔG^°=−RTln1/Keq.
The kinetic parameters of DimerX/peptides complexes were assessed, prior to the ex vivo assay with the mouse cells, to ensure that the assayed peptides could stably bind to the H-2 cleft of DimerX proteins. The DimerX proteins were immobilized onto the sensor chip using the EDC/NHS methodology for covalent binding and, thus, we assumed that the α1 and α2 domains of the recombinant H-2 were free to interact with the synthetic peptides in solution. The RU value obtained after DimerX immobilization was taken as reference to define the baseline to measure peptides binding (Figure 1).

[3] = RUd of cells from infected mice minus RUd of cells from noninfected mice, 10^4 cells in PBS

Sequence | RUs (subtractive dissociation response) 1st week ([1]; RUd of cells from infected mice minus RUd of cells from noninfected mice, 10^4 cells in PBS, 1st week of infection) | RUs (subtractive dissociation response) 3rd week [1, 3] | RUs (subtractive dissociation response) 4th week [1, 3] | RUs (subtractive dissociation response) 6th week [1, 3] | RUs (subtractive dissociation response) 12th week [1, 3] | RUs (subtractive dissociation response) 18th week [1, 3] | trend of reactivity of peptide-reactive T lymphocytes along the infection [1] | Kd [2] | association constant (ka) [2] | dissociation constant (kd) [2]
MVEQVICFD [P1.9, synthetic peptide … derived from the COOH-terminal region of cysteine proteinase B of L. (L.) amazonensis] | 115 RU | 181 RU | 149 RU | 118 RU | 120 RU | 66 RU | oscillation in their reactivity | 74 nM | 1.57 × 10^6 M^−1 S^−1 | 0.1157 S^−1
EFCLGGGLC [P6.5, synthetic peptide … derived from the COOH-terminal region of cysteine proteinase B of L. (L.) amazonensis] |  | 55 RU | 185 RU | 109 RU | 27 RU | 85 RU | oscillation in their reactivity | 0.7 nM | 6.40 × 10^7 M^−1 S^−1 | 0.0470 S^−1
CLGGGLCL [P6.4, synthetic peptide CLGGGLCL derived from the COOH-terminal region of cysteine proteinase B of L. (L.) amazonensis] |  | 100 RU | 127 RU | 140 RU |  | 66 RU | oscillation in their reactivity | 9 nM | 1.20 × 10^7 M^−1 S^−1 | 0.1089 S^−1
VEQVICFD [P1.10, synthetic peptide VEQVICFD derived from the COOH-terminal region of cysteine proteinase B of L. (L.) amazonensis] |  | 227 RU |  | 123 RU | 31 RU | 44 RU | clear tendency to diminish their reactivity along the infection | 1 nM | 1.10 × 10^8 M^−1 S^−1 | 0.1230 S^−1
